For three compounds, Activity and inhibition results are on record in ChEMBL document CHEMBL6127044, “An insight into G-quadruplexes: Identification and potential therapeutic targets in livestock viruses” (Eur J Med Chem, 2024).

Structures are written as SMILES.

In one series the test system is Vero. As to the kind of experiment: Cytotoxicity against African green monkey Vero cells at 50 uM incubated for 24 hrs by MTT assay relative to control. Type of series: toxicity, cell-based. The settings on record: chlorocebus sabaeus. In general terms: Tetrazolium assays rely on reduction of a dye to a coloured formazan, in cell work by metabolically active cells.

Series [1] has as its system Porcine epidemic diarrhea virus. Description: Antiviral activity against Porcine epidemic diarrhea virus infected in African green monkey Vero E6 cells assessed as inhibition of viral replication at 25 uM relative to control. Particulars: Vero C1008. It is filed as functional.

As to `C[n+]1cc(NC(=O)c2ccc3ccc4ccc(C(=O)Nc5cc6ccccc6[n+](C)c5)nc4c3n2)cc2ccccc21`, in the series with Vero, the Activity was determined as 80%. One may read the inhibition as the change of the read-out against control, counted positive when it falls. `NCCOc1cc(C(=O)Nc2cc(OCCN)c3ccccc3n2)nc(C(=O)Nc2cc(OCCN)c3ccccc3n2)c1` [PYRIDOSTATIN]: in the series with Vero, the Activity came out at 80%. The inhibition at 25 µM in series [1] is 99%. For `C[n+]1ccc(-c2c3nc(c(-c4cc[n+](C)cc4)c4ccc([nH]4)c(-c4cc[n+](C)cc4)c4nc(c(-c5cc[n+](C)cc5)c5ccc2[nH]5)C=C4)C=C3)cc1` [TMPYP4 CHLORIDE], in series [1], the inhibition at 25 µM is 99%.
